US4231936A, “Mitomycin C derivatives” (priority 1977, dated 1980)

Tests used:
[1] = background statement; cited from earlier work
[2] = background statement; cited from earlier work; remark: listed apart in the source
[3] = test system: Bacillus subtilis ATCC 10707; assay: Minimum inhibitory concentration (Table I); assay type: cell-based
Excerpt: (§1) Comparative data similarly obtained by using mitomycin A, mitomycin C and 7-N-phenyl mitomycin C are also shown in this table

[4] = test system: Shigella sonnei ATCC 9290; assay: Minimum inhibitory concentration (Table I); assay type: cell-based
Excerpt: as §1

[5] = test system: Staphylococcus aureus ATCC 6538P; assay: Minimum inhibitory concentration (Table I); assay type: cell-based
Excerpt: as §1

[6] = test system: Klebsiella pneumoniae ATCC 10031; assay: Minimum inhibitory concentration (Table I); assay type: cell-based
Excerpt: as §1

P-388 cells [7] = assay: Antitumor activity, P-388 leukemia intraperitoneally inoculated, compound i.p. (Example II); assay type: in vivo, CDF1 mice
Experimental: (§2) The following treatment was performed to make these compounds water-soluble for use in the experiments. A test compound was dissolved in ethanol (about 1000 times by weight) HCO-60, a commercially available surfactant was added in amounts of about 3 times by weight. The mixture was well stirred to dissolve the HCO-60. Ethanol was removed from the solution under reduced pressure by using a rotary evaporator. After this, a test solution was prepared by adding a suitable amount of a physiological saline solution with agitation.
Seven-day-old leukemia cells obtained from the ascites of DBA/2 mice inoculated intraperitoneally with 10^6 P-388 cells were used. A cell suspension containing 5×10^6 cells per ml was prepared by using a sterilized physiological saline solution. The test mice (CDF1 mice, 20-25 g) were inoculated with 0.2 ml of the cell suspension containing 1×10^6 cells intraperitoneally. After 24 hours, the mice were divided into groups (each group consisting of 5 mice) and the test solutions were administered intraperitoneally once only. […] In order to evaluate the effects of the test samples, the average survival days were calculated 30 and 60 days after tumor implantation and compared with those of the control group (untreated group). Antitumor activities of the test compounds are indicated by ILS % (increase in life span%) on the basis of the control group.

[8] = Number of leucocytes in peripheral blood of Sarcoma-180 bearing mice (Example IV); assay type: in vivo, dd-strain mice; settings: 4 days after inoculation
Experimental: as §2
(§3) Sarcoma 180 cells were inoculated intraperitoneally into dd-strain mice. After 7 days following tumor implantation, ascites tumor cells were obtained from the mice. The cells were washed and a tumor cell suspension containing 5×10^7 cells per ml was prepared with physiological saline solution. 0.1 ml of the thus-prepared suspension containing 5×10^6 cells was inoculated into the left inguinal region of each of the test mice (dd-strain; weight 19±1 g; divided into groups, each group consisting of 5 mice). After 24 hours following the inoculation, the test compounds were administered to the mice individually and intraperitoneally. After 4 days following the inoculation, the peripherical blood of the treated mice was obtained by the puncture of the orbital vein. The number of the leucocytes in the peripheral blood was measured by using Toa Microcell Counter CC-108 (a commercial product of Toa Medical Electronics Co., Ltd., Japan). In order to evaluate the antitumor effects, the tumor was removed 7 days after the inoculation and weighed. Its weight was compared with the average weight of the tumors of the control group (untreated) to give the weight ratios (T/C) shown in Table 5.

Solubility in water = assay type: physicochemical
[9] = Acute toxicity determination, intraperitoneal; set-up: species or system Mice (dd-strain); settings: mouse, in vivo, ip; dd mice, single i.p., 14 days, Behrens-Karber
Experimental: as §2
Mice [dd-strain; weight 20±1 g; each group consisted of 5 mice] were used for this experiment. An individual test solution was administered to each mouse by intraperitoneal injection. The test solutions (each 0.5 ml) were prepared by stepwise dilution.

Sarcoma 180 cells = assay: Effect on Sarcoma-180, tumor weight ratio (Example IV); assay type: in vivo, dd-strain mice; settings: tumor weighed 7 days after inoculation
Experimental: as §2, §3

P-388 cells [10] = assay: Antitumor effect, P-388 cells intravenously inoculated, compound i.v. (Example III); assay type: in vivo, Mice; settings: 30 days
Experimental: as §2
Mice were inoculated intravenously with P-388 cells (10^6 /0.2 ml) in a similar manner to that described above in Example II. […] Untreated mice and mice administered with Tween 80 were used for control purpose.

[11] = 5 mg/kg i.p. once, determined after 30 days
[12] = 5 mg/kg i.p. once, determined after 60 days
[13] = 10 mg/kg i.p. once, determined after 30 days
[14] = 10 mg/kg i.p. once, determined after 60 days
[15] = 15 mg/kg i.p. once, determined after 30 days
[16] = 15 mg/kg i.p. once, determined after 60 days
[17] = 20 mg/kg i.p. once, determined after 30 days
[18] = 20 mg/kg i.p. once, determined after 60 days

For `CO[C@@]12[C@H](COC(N)=O)C3=C(C(=O)C(C)=C(N)C3=O)N1C[C@@H]1N[C@@H]12` [II, mitomycin C], the antitumor activity [1] is listed as “interesting antitumor activity”, the toxicity [2] is listed as “relatively high toxicity” and the minimum inhibitory concentration [3] is listed as less than 0.025. For the same molecule, the minimum inhibitory concentration [4] was 1.563, the minimum inhibitory concentration [5] was 0.049 and the minimum inhibitory concentration [6] was less than 0.025.

In the case of `CO[C@@]12[C@H](COC(N)=O)C3=C(C(=O)C(C)=C(Nc4ccc(N)cc4)C3=O)N1C[C@@H]1N[C@@H]12` [V, 7-N-(p-aminophenyl)-mitomycin C], the Average survival days (P-388 cells [7]; [11]) is reported as 20.0 ± 3.0 days, the “ILS % (increase in life span)” value (P-388 cells [7]; [11]) is reported as 104% and the Number of survivors (P-388 cells [7]; [11]) is reported as 0/5. For the same molecule, the Average survival days (P-388 cells [7]; [12]) was 20.0 ± 3.0 days, the “ILS % (increase in life span)” value (P-388 cells [7]; [12]) was 104% and the Number of survivors (P-388 cells [7]; [12]) was 0/5. For the same molecule, the Average survival days (P-388 cells [7]; [13]) was 24.6 ± 2.9 days, the “ILS % (increase in life span)” value (P-388 cells [7]; [13]) was 151% and the Number of survivors (P-388 cells [7]; [13]) was 1/5. The Average survival days (P-388 cells [7]; [14]) was 26.4 ± 6.4 days, the “ILS % (increase in life span)” value (P-388 cells [7]; [14]) was 169% and the Number of survivors (P-388 cells [7]; [14]) was 0/5. The Average survival days (P-388 cells [7]; [15]) was 21.6 ± 6.4 days, the “ILS % (increase in life span)” value (P-388 cells [7]; [15]) was 120% and the Number of survivors (P-388 cells [7]; [15]) was 1/5. The Average survival days (P-388 cells [7]; [16]) was 21.8 ± 6.7 days, the “ILS % (increase in life span)” value (P-388 cells [7]; [16]) was 122% and the Number of survivors (P-388 cells [7]; [16]) was 0/5. For the same molecule, the Average survival days (P-388 cells [7]; [17]) was 18.4 ± 6.1 days, the “ILS % (increase in life span)” value (P-388 cells [7]; [17]) was 88% and the Number of survivors (P-388 cells [7]; [17]) was 1/5. The Average survival days (P-388 cells [7]; [18]) was 24.4 ± 17.9 days, the “ILS % (increase in life span)” value (P-388 cells [7]; [18]) was 149% and the Number of survivors (P-388 cells [7]; [18]) was 1/5. The “Average number of leucocytes” value ([8]; 5 mg/kg i.p.) was 58.2 ± 17.1 × 10^2 /mm^3, the “Average number of leucocytes” value ([8]; 10 mg/kg i.p.) was 34.2 ± 11.2 × 10^2 /mm^3 and the “Average number of leucocytes” value ([8]; 20 mg/kg i.p.) was 24.0 ± 10.2 × 10^2 /mm^3. For the same molecule, the “Average number of leucocytes” value ([8]; 40 mg/kg i.p.) was 13.6 ± 4.6 × 10^2 /mm^3, the solubility in water (Solubility in water) was “low solubility in water” and the LD50 at 336 h [9] was 18 mg/kg. The “T/C (tumor weight ratio)” value (Sarcoma 180 cells; 5 mg/kg i.p.) was 0.71, the “T/C (tumor weight ratio)” value (Sarcoma 180 cells; 10 mg/kg i.p.) was 0.37 and the “T/C (tumor weight ratio)” value (Sarcoma 180 cells; 20 mg/kg i.p.) was 0.24. For the same molecule, the “T/C (tumor weight ratio)” value (Sarcoma 180 cells; 40 mg/kg i.p.) was 0.09, the minimum inhibitory concentration [3] was less than 0.025 and the minimum inhibitory concentration [4] was 3.125. The minimum inhibitory concentration [5] was less than 0.025, the minimum inhibitory concentration [6] was 0.049 and the Average survival days (P-388 cells [10]; 5 mg/kg i.v. once) was 14.0 ± 0 days. The ILS % (P-388 cells [10]; 5 mg/kg i.v. once) was 63%, the Average survival days (P-388 cells [10]; 10 mg/kg i.v. once) was 17.8 ± 1.9 days and the ILS % (P-388 cells [10]; 10 mg/kg i.v. once) was 107%. It also gave an Average survival days (P-388 cells [10]; 15 mg/kg i.v. once) of 23.0 ± 1.7 days, an ILS % (P-388 cells [10]; 15 mg/kg i.v. once) of 167% and an Average survival days (P-388 cells [10]; 20 mg/kg i.v. once) of 15.8 ± 5.4 days. The ILS % (P-388 cells [10]; 20 mg/kg i.v. once) was 84%, the Average survival days (P-388 cells [10]; 30 mg/kg i.v. once) was 8.4 ± 1.0 days and the ILS % (P-388 cells [10]; 30 mg/kg i.v. once) was -2%.
